Measured values published in patent US5589506A, “Stilbene derivative and stilbene analog derivative, and use thereof” (Morinaga Milk Industry Co., Ltd., priority 1993, dated 1996).
Where two headings read alike, the source gives them in different places.

Assays:
[1] = target: T1, 12-lipoxygenase (Rattus norvegicus, UniProt F1LQ70); assay: 12-lipoxygenase inhibition assay (rat platelet enzyme solution); assay type: biochemical, Sprague Dawley male rat; conditions: for inhibition at 1 µM: 10^-6 (mole concentration); for inhibition at 0.1 µM: 10^-7 (mole concentration)
T1 construct: The pelleted platelets were rinsed twice with a washing buffer; from tissue; host or cells: platelets of Sprague Dawley male rat (sonicate, 100,000 x g supernatant)
T1 sequence (F1LQ70 1-663): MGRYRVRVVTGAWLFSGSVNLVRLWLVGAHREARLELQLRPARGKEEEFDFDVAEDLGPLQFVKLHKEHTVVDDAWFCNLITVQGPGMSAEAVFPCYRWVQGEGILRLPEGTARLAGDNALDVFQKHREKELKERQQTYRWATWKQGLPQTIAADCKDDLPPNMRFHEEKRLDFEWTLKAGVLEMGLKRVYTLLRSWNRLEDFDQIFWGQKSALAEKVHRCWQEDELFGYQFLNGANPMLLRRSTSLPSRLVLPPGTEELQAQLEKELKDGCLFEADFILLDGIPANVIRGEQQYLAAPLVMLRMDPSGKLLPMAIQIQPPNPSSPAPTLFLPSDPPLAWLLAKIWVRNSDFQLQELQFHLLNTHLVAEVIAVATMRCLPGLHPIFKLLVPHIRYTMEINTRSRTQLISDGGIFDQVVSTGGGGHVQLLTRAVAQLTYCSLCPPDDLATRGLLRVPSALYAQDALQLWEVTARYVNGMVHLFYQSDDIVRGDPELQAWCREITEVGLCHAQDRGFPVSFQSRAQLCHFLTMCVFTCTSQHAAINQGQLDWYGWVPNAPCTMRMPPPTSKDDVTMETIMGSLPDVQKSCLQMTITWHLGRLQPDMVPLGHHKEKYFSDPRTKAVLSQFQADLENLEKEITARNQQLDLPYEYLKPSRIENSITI
Protocol: The test was performed to examine inhibitory effect of various compounds on the 12-lipoxyganase activity.
1) Preparation of Enzyme Solution
A Sprague Dawley male rat was anesthetized with ether and bled from abdominal aorta using a syringe filled with about one-tenth volume of 3.8% sodium citrate. Blood was centrifuged at 180×g for 15 minutes at room temperature to pellet sanguineous platelet blood plasma. The resultant supernatant was again centrifuged at 1800×g for 10 minutes at 4° C. The pelleted platelets were rinsed twice with a washing buffer (50 mM Tris-hydrochloric acid buffer containing 154 mM sodium chloride and 2 mM EDTA, pH: 7.4). The platelets were then suspended in one-twentieth volume of a resuspension buffer (50 mM Tris-hydrochloric acid buffer containing 154 mM sodium chloride and 5.5 mM glucose, pH: 7.4). The platelets were then sonicated at 4° C. and centrifuged at 100,000×g for 30 minutes to obtain a supernatant as a 12-lipoxgenaseenzyme solution.
2) Procedure for 12-lipoxgenase inhibition assay
The enzyme solution described above was diluted with the resuspension buffer above mentioned to prepare an assay solution so as to include about 2 mU/ml of 12-lipoxygenase. […] The resultant mixture was incubated at 37° C. for 5 minutes. Subsequently, 3 μl of a 2.5 mM arachidonic acid solution in ethanol was added to incubate with for another 5 minutes at 37° C., then the reaction was ceased by the addition of 600 μl of methanol. After being centrifuged at 10,000×g for 5 minutes, 12-hydroxyeicosatetraenoic acid recovered in the supernatant was separated with a reverse phase high-performance liquid chromatography equipped with a […] the activity of 12 lipoxygenase.
The enzyme solution was prepared according to the same manner as in Test Example 1.
It was prepared according to the same procedure as in Test Example 1.
Measurement was performed according to the same procedure as in Test Example 1.
The measurement was performed according to the same procedure as in Test Example 1.

[2] = target: T2, 5-lipoxygenase (Rattus norvegicus, UniProt P12527); assay: 5-lipoxygenase inhibition assay (rat basophilic leukemia cell RBL-1 enzyme solution); assay type: biochemical; conditions: Table 3; read-out: IC50 values of 5-lipoxygenase (mole)
T2 construct: Cultured cells were collected and washed twice; host or cells: RBL-1 rat basophilic leukemia cells (sonicate, 10,000 x g supernatant)
T2 sequence (P12527 1-673): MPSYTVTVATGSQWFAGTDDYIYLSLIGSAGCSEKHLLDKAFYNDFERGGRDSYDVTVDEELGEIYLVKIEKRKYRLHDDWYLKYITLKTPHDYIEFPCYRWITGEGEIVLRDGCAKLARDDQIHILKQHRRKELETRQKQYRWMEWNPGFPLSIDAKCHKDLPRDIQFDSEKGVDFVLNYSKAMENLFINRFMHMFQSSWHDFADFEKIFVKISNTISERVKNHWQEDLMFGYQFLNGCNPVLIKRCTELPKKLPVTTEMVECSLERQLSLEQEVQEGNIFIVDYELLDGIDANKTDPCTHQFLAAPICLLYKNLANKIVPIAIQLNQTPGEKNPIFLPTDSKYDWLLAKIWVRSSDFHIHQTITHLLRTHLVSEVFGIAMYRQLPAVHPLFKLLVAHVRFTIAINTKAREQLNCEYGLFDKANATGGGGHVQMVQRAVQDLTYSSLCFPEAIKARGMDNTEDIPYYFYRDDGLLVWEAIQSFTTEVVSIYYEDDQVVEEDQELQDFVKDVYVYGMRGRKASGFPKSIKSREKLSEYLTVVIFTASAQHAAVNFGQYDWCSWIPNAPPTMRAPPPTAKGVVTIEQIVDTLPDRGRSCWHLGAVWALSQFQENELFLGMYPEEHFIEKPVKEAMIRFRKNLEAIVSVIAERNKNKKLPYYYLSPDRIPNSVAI
Protocol: The test was carried out to examine the selectivity toward 12-lipoxgenase of the compounds of the first embodiment in the present invention.
i) Preparation of 5-lipoxgenase enzyme solution
Rat basophilic leukemia cells (RBL-1, ATCC CRL1378) were cultured in Dulbecco modified Eagle's medium containing 10% new-born bovine serum.
Cultured cells were collected and washed twice with a 50 mM Tris-buffered saline (containing 154 mM sodium chloride, pH: 7.4, hereinafter described as TBS). The cell suspension (4×10^7 cells/ml) was then sonicated and centrifuged at 10,000×g for 10 minutes.
The resultant supernatant was used to prepare an assay solution.
i) Procedure for 5-lipoxgenase inhibition assay
To an aliquot (15 μl) of the enzyme solution (40 mU/ml equivalent) was added 185 μl of TBS, 50 μl of a 2 mM adenosine triphosphate in TBS, 50 μl of a 12 mM calcium chloride in TBS, 1 μl of a 3 mM indomethacin in ethanol solution, 1 μl of an aqueous 300 mM reduced glutathione solution, and 3 μl of varied concentrated test compounds solution in ethanol. The resultant mixture was incubated at 37° C. for 5 minutes. Subsequently, 3 μl of a 2.5 mM arachidonic acid solution in ethanol was added to incubate the mixture for 2 minutes at 37° C. The reaction was ceased by the addition of 600 μl of methanol After being centrifuged at 10,000×g for 5 minutes, 5-hydroxyeicosatetraenoic acid recovered in the supernatant was separated with a reverse phase high-performance liquid chromatography equipped with a C-18 column and measured the absorption of diene at 234 nm to quantify the activity of the enzyme. […]
The enzyme activities of the compounds of the present invention prepared according to the same procedure as in Examples 54-58 to be described later and baicalein as sample substances at varied concentrations were measured according to the above-mentioned method, and mole concentrations showing 50% 12-lipoxgenase and 5-lipoxgenase inhibition ratios (hereinafter may be described as IC50 values) were obtained from the measured values of the sample substances.

[3] = Table 3, read-out: IC50 values of 12-lipoxygenase (mole)
[4] = 10^-5 (mole concentration), 10 µM
[5] = 10^-5 (mole concentration), read-out: 12-Lipoxygenase inhibition ratio (%)
[6] = read-out: 12-Lipoxygenase inhibition ratio (%)
[7] = Table 2, read-out: 12-Lipoxygenase IC50 values
[8] = Table 12, deacylated compounds, read-out: 12-Lipoxygenase inhibitory effect of deacylated compounds (IC50 values)

Compound	IC50 [1, 3]	IC50 [2]	12-Lipoxygenase inhibition ratio (%) [1, 4]	inhibition at 10 µM [1, 5]	inhibition at 1 µM [1, 6]	inhibition at 0.1 µM [1, 6]	IC50 [1, 7]	further results
Cc1cccc(C=C(C#N)c2ccc(O)c(O)c2)c1 [Bz. 25, α-cyano-3'-methyl-3,4-dihydroxystilbene]	7 nM	44 nM						
N#CC(=Cc1cccc(O)c1)c1ccc(Cl)cc1 [Comp. Ex. 1, reference compound]			7%	< 10%	1%	0%		
N#CC(=Cc1ccc(O)cc1)c1ccc(Cl)cc1 [Comp. Ex. 2, reference compound]			10%	< 10%	2%	5%		
COc1ccc(C=C(C#N)c2ccc(Cl)cc2)cc1O [Comp. Ex. 3, reference compound]			10%	< 10%	1%	0%		
COc1cc(C=C(C#N)c2ccc(Cl)cc2)ccc1O [Comp. Ex. 4, reference compound]			2%		0%	0%		
Oc1ccc(/C=C/c2ccccc2)cc1O [Comp. Ex. 5, reference compound]							1200 nM	12-lipoxygenase inhibitory effect (in words) [1]: remarkably poor compared with that of the compound (Example 1)
CCOC(=O)C(=Cc1ccc(O)c(O)c1)c1ccccc1 [Comp. Ex. 6, reference compound]							160 nM	12-lipoxygenase inhibitory effect (in words) [1]: remarkably poor compared with that of the compound (Example 1)
N#CC(=Cc1ccc(O)c(O)c1)c1ccc(O)cc1 [Comp. Ex. 7, reference compound]							230 nM	
N#CC(=Cc1ccc(O)c(O)c1)c1ccc(O)c(O)c1 [Comp. Ex. 8, reference compound]							300 nM	
N#CC(=Cc1ccc(C(=O)O)cc1)c1ccc(O)c(O)c1 [Comp. Ex. 9, reference compound]							5000 nM	
N#CC(=Cc1ccc(O)c(O)c1)c1ccc(Cl)cc1 [Ex. 1, α-cyano-4-chloro-3',4'-dihydroxystilbene]	4.2 nM	38 nM		97%	97%	98%	4.2 nM	12-Lipoxygenase inhibition ratio (%) ([1]; 10^-8 (mole concentration), 0.01 µM): 73%; 12-Lipoxygenase inhibition ratio (%) ([1]; 10^-8 (mole concentration), 0.01 µM, listed as Example 1, 0.01 µM): 73%; inhibition at 0.001 µM ([1]; 10^-9 (mole concentration), read-out: 12-Lipoxygenase inhibition ratio (%)): 1%; IC50 [1, 8]: 4.2 nM
N#CC(=Cc1ccc(Cl)cc1)c1ccc(O)c(O)c1 [Ex. 2, α-cyano-4'-chloro-3,4-dihydroxystilbene]	1.8 nM	56 nM						IC50 [1, 8]: 1.8 nM
N#CC(=Cc1ccc(O)c(O)c1)c1ccc(F)cc1 [Ex. 3]	4.8 nM	94 nM						
